Laboratory results taken from paper PMC10452110, “Indole-3-Acetamido-Polyamines as Antimicrobial Agents and Antibiotic Adjuvants” (Biomolecules, 2023).
Converted amounts (≈) assume the structure as drawn. Where two headings read alike, the source gives them in different places. Marks after values point to notes of the source that are not given here.

Experiments:
[1] = system: Cryptococcus neoformans (ATCC 208821); parameters: method as in Cadelis et al. [15]; conditions: C. neoformans ATCC 208821; ref Cadelis et al. [15]; cited from earlier work
[2] = system: HEK293 (human embryonic kidney) cells; parameters: method as in Cadelis et al. [15]; conditions: ref Cadelis et al. [15], cited from earlier work; for IC50: read-out: Cytotoxicity: concentration of compound at 50% cytotoxicity (IC50)
[3] = system: Pseudomonas aeruginosa (ATCC 27853); parameters: method as in Cadelis et al. [15]; conditions: P. aeruginosa ATCC 27853; ref Cadelis et al. [15]; cited from earlier work
human red blood cells [4] = system: human red blood cells; parameters: method as in Cadelis et al. [15]; conditions: ref Cadelis et al. [15], cited from earlier work
P. aeruginosa ATCC 27853 [5] = system: P. aeruginosa ATCC 27853; parameters: method as in Cadelis et al. [15]; conditions: doxycycline at 4.5 µM, ref Cadelis et al. [15], cited from earlier work; for Dox/P. a fold change (ratio between intrinsic MIC of the test compound and combination MIC): P. aeruginosa ATCC 27853; for Dox/P. a: concentration required to restore doxycycline activity (combination MIC): P. aeruginosa
[6] = system: Acinetobacter baumannii (ATCC 19606); parameters: method as in Cadelis et al. [15]; conditions: A. baumannii ATCC 19606; ref Cadelis et al. [15]; cited from earlier work
[7] = system: Escherichia coli (ATCC 25922); parameters: method as in Cadelis et al. [15]; conditions: E. coli ATCC 25922; ref Cadelis et al. [15]; cited from earlier work
MRSA (ATCC 43300) [8] = conditions: ref Cadelis et al. [15]; cited from earlier work
[9] = system: Staphylococcus aureus (ATCC 25923); parameters: method as in Cadelis et al. [15]; conditions: S. aureus ATCC 25923; ref Cadelis et al. [15]; cited from earlier work
[10] = system: Klebsiella pneumoniae (ATCC 700603); parameters: method as in Cadelis et al. [15]; conditions: K. pneumoniae ATCC 700603; ref Cadelis et al. [15]; cited from earlier work
[11] = system: Candida albicans (ATCC 90028); parameters: method as in Cadelis et al. [15]; conditions: C. albicans ATCC 90028; ref Cadelis et al. [15]; cited from earlier work
K. pneumoniae = system: K. pneumoniae; parameters: method as in PMID 33090655; conditions: ref [15]; cited from earlier work
E. coli = system: E. coli; parameters: method as in PMID 33090655; conditions: ref [15]; cited from earlier work
MRSA (CF-Marseille) = test: Real time growth inhibition curves, microdilution MIC and MBC, MRSA (CF-Marseille); assay type: cell-based, Staphylococcus aureus
Excerpt: (§1) We next assessed the kinetics of antibacterial activity of 15c towards the Gram-positive bacteria S. aureus ATCC 25923 and MRSA (CF-Marseille) by measuring real time growth inhibition curves.

[12] = system: Cryptococcus neoformans (ATCC 208821); test: Intrinsic antifungal activity (MIC) against C. neoformans; assay type: cell-based; conditions: ATCC208821, C. neoformans ATCC 208821, mean (n = 2), read-out: MIC C. n
Procedure, shortened: (§2)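 Antibacterial MICs by established in-house protocol; yeast MICs run externally at CO-ADD, University of Queensland, per their standard screening protocols.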

MRSA (ATCC 43300) [13] = test: Intrinsic antimicrobial activity (MIC) against MRSA; assay type: cell-based; conditions: Staphylococcus aureus, MRSA ATCC 43300; mean (n = 2); read-out: MIC MRSA
Procedure, shortened: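 Bacterial susceptibility was determined following previously reported protocols. The antifungal evaluations were carried out at the Community for Open Antimicrobial Drug Discovery (University of Queensland, Australia) under its standard protocols.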

human red blood cells [14] = test: Hemolytic assay; assay type: cell-based; conditions: mean (n = 2)
Procedure: Hemolysis assays were conducted using the protocols previously reported.

[15] = system: Staphylococcus aureus (ATCC 25923); test: Intrinsic antimicrobial activity (MIC) against S. aureus; assay type: cell-based; conditions: ATCC25923, S. aureus ATCC 25923, mean (n = 3), read-out: MIC S. a
Procedure, shortened: (§3)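 MICs for S. aureus ATCC 25923 and P. aeruginosa ATCC 27853 determined by previously reported protocols; C. albicans ATCC 90028 and C. neoformans ATCC 208821 tested at the Community for Open Antimicrobial Drug Discovery (University of Queensland) under its standard protocols.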

P. aeruginosa ATCC 27853 [16] = test: Enhancement of doxycycline action against P. aeruginosa; assay type: cell-based, Pseudomonas aeruginosa; conditions: doxycycline at 4.5 µM
Procedure: (§4) Antibiotic enhancer concentrations were determined using previously reported protocols.

[17] = system: Pseudomonas aeruginosa (ATCC 27853); test: Intrinsic antimicrobial activity (MIC) against P. aeruginosa; assay type: cell-based; conditions: ATCC27853, P. aeruginosa ATCC 27853, mean (n = 3), read-out: MIC P. a
Procedure, shortened: as §3

[18] = system: Candida albicans (ATCC 90028); test: Intrinsic antifungal activity (MIC) against C. albicans; assay type: cell-based; conditions: ATCC90028, C. albicans ATCC 90028, mean (n = 2), read-out: MIC C. a
Procedure, shortened: as §2

Cytotoxicity assay = assay type: cell-based; conditions: human; HEK293 cells; mean (n = 2); read-out: Cytotoxicity: concentration of compound at 50% cytotoxicity (IC50)
Procedure: Cytotoxicity assays were conducted using the protocols previously reported.

E. coli ATCC 25922 = test: Enhancement of erythromycin action against E. coli; assay type: cell-based, Escherichia coli; conditions: erythromycin at 10.9 µM
Procedure: as §4

S. aureus ATCC 25923 = test: Real time growth inhibition curves, microdilution MIC and MBC, S. aureus; assay type: cell-based, Staphylococcus aureus
Excerpt: as §1

[19] = system: Acinetobacter baumannii (ATCC 19606); test: Intrinsic antimicrobial activity (MIC) against A. baumannii; assay type: cell-based; conditions: ATCC19606, A. baumannii ATCC 19606, mean (n = 2), read-out: MIC A. b
[20] = system: Escherichia coli (ATCC 25922); test: Intrinsic antimicrobial activity (MIC) against E. coli; assay type: cell-based; conditions: ATCC25922, E. coli ATCC 25922, mean (n = 3), read-out: MIC E. c
Procedure, shortened: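 Fungal strains were tested by CO-ADD at The University of Queensland using that facility's standard protocols, whereas bacterial MICs followed methods published earlier.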

[21] = system: Klebsiella pneumoniae (ATCC 700603); test: Intrinsic antimicrobial activity (MIC) against K. pneumoniae; assay type: cell-based; conditions: ATCC700603, K. pneumoniae ATCC 700603, mean (n = 2), read-out: MIC K. p
[22] = lowest tested concentration 6.4 μM

## O=C(Cc1c[nH]c2ccccc12)NCCCNCCCCNCCCNC(=O)Cc1c[nH]c2ccccc12 [Compound 14a]
[1]
  MIC C. n: >62 µM
[2]
  IC50: > 43 µM
[3]
  MIC P. a: >200 µM
Human red blood cells [4]
  Hemolysis: concentration of compound at 10% hemolytic activity (HC10): >43 µM
P. aeruginosa ATCC 27853 [5]
  Dox/P. a fold change (ratio between intrinsic MIC of the test compound and combination MIC): > 4 fold
  Dox/P. a: concentration required to restore doxycycline activity (combination MIC): 50 µM
[6]
  MIC A. b: >62 µM
[7]
  MIC E. c: >200 ^j µM
MRSA (ATCC 43300) [8]
  MIC MRSA: >62 µM
[9]
  MIC S. a: 200 µM (≈ 103 µg/mL)
[10]
  MIC K. p: >62 µM
[11]
  MIC C. a: >62 µM

## O=C(Cc1c[nH]c2ccc(Br)cc12)NCCCNCCCCNCCCNC(=O)Cc1c[nH]c2ccc(Br)cc12 [Compound 15a]
[1]
  MIC C. n: 11.9 µM (≈ 8.03 µg/mL)
[2]
  IC50: > 35 µM
  Cytotoxicity: concentration of compound at 50% cytotoxicity (IC50): negligible
[3]
  MIC P. a: 200 µM (≈ 135 µg/mL)
K. pneumoniae
  enhancement of the antibiotic action of doxycycline (MIC): 6.25 µM
E. coli
  enhancement of the antibiotic action of doxycycline (MIC): 3.125 µM
Human red blood cells [4]; listed as 5
  Hemolysis: concentration of compound at 10% hemolytic activity (HC10): negligible
Human red blood cells [4]
  Hemolysis: concentration of compound at 10% hemolytic activity (HC10): >35 µM
P. aeruginosa ATCC 27853 [5]
  Dox/P. a fold change (ratio between intrinsic MIC of the test compound and combination MIC): 32 fold
  Dox/P. a: concentration required to restore doxycycline activity (combination MIC): 6.25 µM
[6]
  MIC A. b: >48 µM
[7]
  MIC E. c: 200 µM (≈ 135 µg/mL)
MRSA (ATCC 43300) [8]
  MIC MRSA: 47.4 µM (≈ 32 µg/mL)
[9]
  MIC S. a: 25 µM (≈ 16.9 µg/mL)
[10]
  MIC K. p: >48 µM
[11]
  MIC C. a: >48 µM

## O=C(Cc1c[nH]c2ccc(Br)cc12)NCCCNCCCCCCCNCCCNC(=O)Cc1c[nH]c2ccc(Br)cc12.O=C(O)C(F)(F)F.O=C(O)C(F)(F)F [Compound 15c, N^1,N^7-Bis(3-(2-(5-bromo-1H-indol-3-yl)acetamido)propyl)heptane-1,7-diaminium 2,2,2-trifluoroacetate]
MRSA (CF-Marseille)
  mode of antibacterial action (MBC versus MIC): bactericidal
MRSA (CF-Marseille); Staphylococcus aureus, matches real time growth curve at 18 h, read-out: MIC (classical microdilution methodology)
  MIC: 12.7 µM
MRSA (CF-Marseille); Staphylococcus aureus, read-out: minimum bactericidal concentration (MBC)
  MBC: 12.7 µM
MRSA (CF-Marseille); at 25.4 μM and 12.7 μM
  real time growth inhibition: completely inhibited
MRSA (CF-Marseille); [22]
  time after which bacterial growth was detected: > 4 h
[12]
  MIC: ≤ 0.26 µM
MRSA (ATCC 43300) [13]
  MIC: ≤ 0.26 µM
Human red blood cells [14]
  Hemolysis: concentration of compound at 10% hemolytic activity (HC10): >34 µM
[15]
  MIC: 12.7 µM
P. aeruginosa ATCC 27853 [16]
  Dox/P. a: concentration required to restore doxycycline activity (combination MIC): 6.62 µM
[17]
  MIC: 106 µM
[18]
  MIC: ≤ 0.26 µM
Cytotoxicity assay
  IC50: > 34 µM
E. coli ATCC 25922
  Eryth/E. c: concentration required to restore erythromycin activity (combination MIC): 6.62 µM
S. aureus ATCC 25923
  mode of antibacterial action (MBC versus MIC): bactericidal
S. aureus ATCC 25923; Staphylococcus aureus, ATCC25923, matches real time growth curve at 18 h, read-out: MIC (classical microdilution methodology)
  MIC: 12.7 µM
S. aureus ATCC 25923; Staphylococcus aureus, ATCC25923, read-out: minimum bactericidal concentration (MBC)
  MBC: 12.7 µM
S. aureus ATCC 25923; at 25.4 μM and 12.7 μM
  real time growth inhibition: completely inhibited
S. aureus ATCC 25923; [22]
  time after which bacterial growth was detected: > 4 h
[19]
  MIC: > 34 µM
[20]
  MIC: 13.2 µM
[21]
  MIC: > 34 µM

## COc1ccc2[nH]cc(CC(=O)NCCCNCCCCNCCCNC(=O)Cc3c[nH]c4ccc(OC)cc34)c2c1 [Compound 16a]
[1]
  MIC C. n: >55 µM
[2]
  IC50: > 40 µM
[3]
  MIC P. a: >200 µM
Human red blood cells [4]
  Hemolysis: concentration of compound at 10% hemolytic activity (HC10): >40 µM
P. aeruginosa ATCC 27853 [5]
  Dox/P. a fold change (ratio between intrinsic MIC of the test compound and combination MIC): > 1 fold
  Dox/P. a: concentration required to restore doxycycline activity (combination MIC): 200 µM
[6]
  MIC A. b: >55 µM
[7]
  MIC E. c: >200 µM
MRSA (ATCC 43300) [8]
  MIC MRSA: >55 µM
[9]
  MIC S. a: 200 µM (≈ 115 µg/mL)
[10]
  MIC K. p: >55 µM
[11]
  MIC C. a: >55 µM

## COc1cccc2c(CC(=O)NCCCNCCCCCCCNCCCNC(=O)Cc3c[nH]c4c(OC)cccc34)c[nH]c12.O=C(O)C(F)(F)F.O=C(O)C(F)(F)F [Compound 19c, N^1,N^7-Bis(3-(2-(7-methoxy-1H-indol-3-yl)acetamido)propyl)heptane-1,7-diaminium 2,2,2-trifluoroacetate]
[12]
  MIC: ≤ 0.3 µM
MRSA (ATCC 43300) [13]
  MIC: 37.8 µM
Human red blood cells [14]
  Hemolysis: concentration of compound at 10% hemolytic activity (HC10): >38 µM
[15]
  MIC: 29.5 µM
P. aeruginosa ATCC 27853 [16]
  Dox/P. a fold change (ratio between intrinsic MIC of the test compound and combination MIC): > 2 fold
  Dox/P. a: concentration required to restore doxycycline activity (combination MIC): 118 µM
[17]
  MIC: > 236 µM
[18]
  MIC: > 38 µM
Cytotoxicity assay
  IC50: > 38 µM
E. coli ATCC 25922
  Eryth/E. c: concentration required to restore erythromycin activity (combination MIC): 236 µM
[19]
  MIC: > 38 µM
[20]
  MIC: 236 µM
[21]
  MIC: > 38 µM
